One assay deals with day 9 CD34+ progenitors. Description: OP9-DL4 co-culture for T-lineage differentiation. The class given is cell-based, human. The conditions noted are these: cultured on OP9-DL4 cells; FIG. 5A. The method, then: OP9 cells retrovirally-transduced to express Delta-like 4 (OP9-DL4) were generated and maintained in α-MEM medium supplemented with penicillin/streptomycin and 20% FBS (OP9 media) as previously described (La Motte-Mohs et al., 2005; Schmitt et al., 2004). 5-10×10^4 sorted human EB-derived subsets were added to individual wells of a 6-well plate containing OP9-DL4 cells, and cultured in OP9-media supplemented with rhFlt-3L (5 ng/mL) and rhIL-7 (5 ng/mL), (Peprotech, Rocky Hill, N.J.). rhSCF (100 ng/mL) was added for the first 8 days only, Every five days co-cultures were transferred onto fresh OP9-DL4 cells by vigorous pipetting and passaging through a 40 μm cell strainer to remove stromal cells.

The next assay relates to CD34+CD43− populations. As to the kind of experiment: OP9-DL1 co-culture for erythroid/myeloid differentiation followed by colony assay. The class given is cell-based, human. The conditions noted are these: 7 days of co-culture on OP9-DL1; FIG. 6C. How it is done: Sorted cells were cultured at a concentration of 2×10^4 cells per well on irradiated OP9-DL1 monolayers in OP9 media with VEGF (5 ng/mL), TPO (30 ng/mL), SCF (50 ng/mL), Flt3 (10 ng/mL), IL-11 (5 ng/mL), and BMP-4 (10 ng/mL) in 24-well plates for 7 days. Cells were harvested as above. Analysis of hematopoietic colony potential was performed by plating either 5×103-2.5×10^4 sorted cells or 2.5×104-5.0×104 unfractionated EB populations in 1% methylcellulose containing specific cytokines as described in detail previously (Kennedy et al., 2007). Colonies consisting of erythroid, erythroid/myeloid and myeloid (either macrophage or mast cell) cells were quantified after 10-14 days.

Here are results for one compound from patent US9834754B2, “Populations of hematopoietic progenitors and methods of enriching stem cells therefor” (University Health Network, priority 2011, dated 2017).

For `NC(=O)c1ccc(-c2nc(-c3ccc4c(c3)OCO4)c(-c3ccccn3)[nH]2)cc1` [SB-431542], the “T cell generation from SB-treated day 9 CD34+ progenitors” value with day 9 CD34+ progenitors is listed as “generated T cells”. Moreover, the “numbers of erythroid and erythroid-myeloid progenitors versus Activin A-induced progenitors” value with CD34+CD43− populations is given as “significantly higher numbers”.
